These results are taken from US8987510B2, “Method for removal of the cyclic diester of a 2-hydroxy alkanoic acid from a vapor” (Purac Biochem BV, priority 2011, dated 2015).

A short description of data set [1]: solubility behavior of mandelide in neutral, acid and alkaline aqueous solution, visual inspection. It is filed as physicochemical. The conditions noted are these: 2% by weight mandelide, 20° C., stirred. From the text:
In additional experiments according to the present invention, the lactide was replaced by mandelide, the cyclic diester of 2-hydroxy-2-phenylacetic acid (also known as mandelic acid). The solubility behavior of mandelide in a neutral solution, an acid solution and an alkaline solution has been monitored and mutually compared. For this purpose, the acid aqueous solution was made by dissolving 10% by weight of mandelic acid in water. An alkaline aqueous solution was made by adding NaOH until a pH of 13 was reached. The neutral aqueous solution consisted of pure, non-buffered water. To these three aqueous solutions, an amount of 2% by weight of mandelide was added. All solutions were kept at 20° C. and stirred for several hours. In this period of time, the solubility behavior of the mandelide in the aqueous solutions was followed by visual inspection.

Data set [2] can be described thus: formation of lactide precipitates in circulating aqueous washing solution contacted with lactide-containing vapor.
From the text: In a first experiment according to the invention, a vapor which contains lactide (i.e. the dehydrated cyclic diester of lactic acid or 2-hydroxy propanoic acid) is guided via vapor inlet pipeline 1 into wet washing column 2 shown in FIG. 1. […] Column 2 comprises packed bed 3, which extends over the whole internal diameter of the column. The column is further equipped with a vapor outlet pipeline 4 and a liquid distributor 5. The vapor travels through packed bed 3 and exits the column via vapor outlet pipeline 4. […] Pump 6 further sucks the vapor containing the cyclic diester, such as lactide, from inlet pipeline 1, through column 2, packed bed 3 and outlet line 4 to an exhaust collection system (not shown).
Column 2 further comprises a liquid storage compartment 7, which contains an aqueous solution. Additional liquid can be introduced in compartment 7 via liquid inlet pipeline 8. […] This solution is circulated through a liquid circulation system comprising liquid circulation pipeline 9, which circulation is powered by liquid pump 10. In practice, the aqueous solution is pumped from the liquid storage compartment 7 via pipeline 9 and heat exchanger 11 to liquid distributor 5. In distributor 5, the alkaline solution is converted from a liquid stream into small droplets. These droplets fall onto and distribute over the upper surface 12 of packed bed 3. Due to gravity, the droplets of the aqueous solution travel through packed bed 3 and fall in the aqueous solution present in storage compartment 7. The size of compartment 7 depends on residence time required under the operation conditions used.
During the whole experiment, the pH of the solution was maintained above 10. This was achieved by the addition of a base. In the present experiment, sodium hydroxide was used as the base. It appeared to be advantageous to add the base continuously, preferably in liquid form. For this experiment, a commercially available stock solution of 50 w/w-% of NaOH in water (Brenntag, technical grade) was used. […]

Consider `O=C1OC(c2ccccc2)C(=O)OC1c1ccccc1` (stereo not drawn) [mandelide], for which the “mandelide dissolved after 60 minutes” value in data set [1] (acid solution (10% by weight mandelic acid in water)) is on record as “almost all of the added mandelide was still not dissolved”; in data set [1] (neutral solution (pure, non-buffered water)) it was “not been dissolved at all”. Besides, the “added mandelide dissolved after 60 minutes” value in data set [1] (alkaline solution (NaOH, pH 13)) is recorded as “approximately 50%”.

For `CC1OC(=O)C(C)OC1=O` (stereo not drawn) [lactide], the lactide precipitates entry was “no lactide precipitates have been observed” in data set [2] (alkaline aqueous solution, above pH 10, NaOH, around 15° C., approximately 15 mbar); “formation of small lactide precipitates can occur” in data set [2] (alkaline aqueous solution, pH between 7 and 10); “part of the dissolved lactide precipitates” in data set [2] (comparative: starting pH approximately 7, no base, pH drops below 4).
